Assays:
[1] = Octanol/water partition coefficient, logP of compound at pH 7.4; format: physicochemical
[2] = Acute toxicity in ICR mouse assessed as mortality rate at 1500 mg/kg, po administered as single dose measured after 1 week relative to control; format: organism-based; details: in vivo, time 1 weeks, read-out: Activity
[3] = MRT in Sprague-Dawley rat at 10 mg/kg, po measured up to 24 hrs by LC-MS/MS analysis; format: ADME, organism-based; details: in vivo
[4] = Tmax in Sprague-Dawley rat at 10 mg/kg, po measured up to 24 hrs by LC-MS/MS analysis; format: ADME, organism-based; details: in vivo
[5] = Cmax in Sprague-Dawley rat at 1 mg/kg, ip measured up to 24 hrs by LC-MS/MS analysis; format: ADME, organism-based; set-up: route intraperitoneal, dose 1 mg/kg, time <=24; details: in vivo
[6] = MRT in Sprague-Dawley rat at 1 mg/kg, ip measured up to 24 hrs by LC-MS/MS analysis; format: ADME, organism-based; details: in vivo
[7] = Oral bioavailability in Sprague-Dawley rat at 10 mg/kg measured up to 24 hrs by LC-MS/MS analysis; format: ADME, organism-based; details: in vivo
[8] = Cmax in Sprague-Dawley rat at 10 mg/kg, po measured up to 24 hrs by LC-MS/MS analysis; format: ADME, organism-based; set-up: route oral, dose 10 mg/kg, time <=24; details: in vivo
[9] = AUC (0 to infinitive) in Sprague-Dawley rat at 1 mg/kg, ip measured up to 24 hrs by LC-MS/MS analysis; format: ADME, organism-based; set-up: route intraperitoneal, dose 1 mg/kg, time <=24; details: in vivo
[10] = AUC (0 to infinitive) in Sprague-Dawley rat at 10 mg/kg, po measured up to 24 hrs by LC-MS/MS analysis; format: ADME, organism-based; set-up: route oral, dose 10 mg/kg, time <=24; details: in vivo

logD [1]	SMILES	also measured
2.65	FC(F)(F)Oc1cccc(Nc2nc(Nc3ccccc3)ncc2Cl)c1	–
2.26	FC(F)(F)c1cccc(Nc2nc(Nc3cccnn3)ncc2Cl)c1	–
2.46	FC(F)(F)c1cccc(Nc2nc(Nc3ccccc3)ncc2Cl)c1	–
1.26	FC(F)(F)c1cccc(Nc2nc(Nc3cccnc3)ncc2Cl)c1	–
1.4	FC(F)(F)c1cccc(Nc2nc(Nc3ccccn3)ncc2Cl)c1	–

More lines, now with the values behind:

SMILES	logD [1]	also measured
CN1CCN(c2ccc(Nc3ncc(Cl)c(Nc4cccc(C(F)(F)F)c4)n3)cc2)CC1	1.46	–
FC(F)(F)c1cccc(Nc2nc(Nc3cncnc3)ncc2Cl)c1	2.01	–
CN1CCN(c2ncc(Nc3ncc(Cl)c(Nc4cccc(C(F)(F)F)c4)n3)cn2)CC1	1.89	–
CN1CCN(c2ccc(Nc3ncc(Cl)c(Nc4cccc(C(F)(F)F)c4)n3)cn2)CC1	1.61	–
CN1CCN(c2ccc(Nc3ncc(Cl)c(Nc4cccc(C(F)(F)F)c4)n3)nn2)CC1	1.26	–
NC1CCN(c2ccc(Nc3ncc(Cl)c(Nc4cccc(C(F)(F)F)c4)n3)nc2)CC1	0.44	–
CCN1CCN(c2ccc(Nc3ncc(Cl)c(Nc4cccc(C(F)(F)F)c4)n3)nc2)CC1	2.18	–
FC(F)(F)c1cccc(Nc2nc(Nc3ccc(N4CCNCC4)cn3)ncc2Cl)c1	1.25	–
FC(F)(F)c1cccc(Nc2nc(Nc3ccc(-c4ccsc4)cn3)ncc2Cl)c1	2.03	–
CN(C)C1CCN(c2ccc(Nc3ncc(Cl)c(Nc4cccc(C(F)(F)F)c4)n3)nc2)CC1	2.01	mortality at 168 h [2]: 70%
CN1CCN(c2ccc(Nc3ncc(Cl)c(Nc4cccc(C(F)(F)F)c4)n3)nc2)CC1	1.87	MRT [3]: 2.68 h; Tmax [4]: 2 h; Cmax [5]: 458 ng/mL; MRT [6]: 1.22 h; bioavailability [7]: 16.7%; Cmax [8]: 83.5 ng/mL; AUC [9]: 249.2 ng·h/mL; AUC(0-inf) [10]: 158 ng·h/mL
